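Protocol summary: plate cells (96-well), add compound at 5 concentrations, incubate 48 h, interpolate endpoints linearly. GI50 is the concentration that inhibits growth by half.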 Activity calls are given as the source filed them. Cut-off read from the data, not from the text of the source: active = GI50 up to about 1.1 µM and inactive = higher.
Tests used:
Assay in all cases: NCI tumour cell line growth inhibition, 48 h
HCT-116 = test system: HCT-116
MOLT-4 = test system: MOLT-4
OVCAR-5 = test system: OVCAR-5
OVCAR-4 = test system: OVCAR-4
A549 = test system: A549
SW-620 = test system: SW-620
NCI-H226 = test system: NCI-H226
T47D = test system: T47D
SF-295 = test system: SF-295
MDA-MB-435 = test system: MDA-MB-435
OVCAR-8 = test system: OVCAR-8
SK-MEL-28 = test system: SK-MEL-28
SF-539 = test system: SF-539
HL-60 = test system: HL-60
U-251 = test system: U-251
UO-31 = test system: UO-31
SK-OV-3 = test system: SK-OV-3
LOX IMVI = test system: LOX IMVI
BT-549 = test system: BT-549
NCI-H522 = test system: NCI-H522

Measured: GI50

O=C1CCC[C@H]2O[C@@H](COCc3ccccc3)C[C@@H]12
inactive: HCT-116 > 100 µM | MOLT-4 > 100 µM | OVCAR-5 > 100 µM | OVCAR-4 > 100 µM | A549 > 100 µM | SW-620 > 100 µM | NCI-H226 > 100 µM | T47D > 100 µM | SF-295 > 100 µM | MDA-MB-435 > 100 µM | OVCAR-8 > 100 µM | SK-MEL-28 > 100 µM | SF-539 > 100 µM | HL-60 > 100 µM | U-251 > 100 µM | UO-31 > 100 µM | SK-OV-3 > 100 µM

C/C(Cc1ccc2c(c1)OCO2)=N\NC(=O)C(C)Sc1nnc(SC(C)C(=O)N/N=C(\C)Cc2ccc3c(c2)OCO3)s1 (stereo unspecified)
inactive: HCT-116 > 100 µM | LOX IMVI > 100 µM | MOLT-4 27.7 µM | OVCAR-5 > 100 µM | OVCAR-4 > 100 µM | A549 > 100 µM | SW-620 > 100 µM | NCI-H226 > 100 µM | SF-295 > 100 µM | MDA-MB-435 > 100 µM | OVCAR-8 > 100 µM | SK-MEL-28 > 100 µM | HL-60 > 100 µM | U-251 > 100 µM | UO-31 > 100 µM | SK-OV-3 > 100 µM | BT-549 > 100 µM

NC(=S)N/N=C(\CC1OC(=O)c2ccccc21)c1ccc(Cl)cc1 (stereo unspecified)
inactive: HCT-116 24.4 µM | LOX IMVI 27.8 µM | MOLT-4 61.5 µM | OVCAR-5 92.9 µM | OVCAR-4 23.1 µM | A549 48.2 µM | SW-620 44.8 µM | NCI-H226 24.4 µM | SF-295 41.9 µM | OVCAR-8 18 µM | SK-MEL-28 45.8 µM | SF-539 20.8 µM | NCI-H522 20.9 µM | HL-60 98.2 µM | U-251 22.5 µM | UO-31 24.9 µM | SK-OV-3 42.8 µM

S=C(c1c[nH]c2ccccc12)N1CCCCC1
inactive: HCT-116 95.1 µM | LOX IMVI > 100 µM | MOLT-4 58.1 µM | OVCAR-5 > 100 µM | SW-620 > 100 µM | NCI-H226 > 100 µM | SF-295 62.1 µM | MDA-MB-435 85.5 µM | OVCAR-8 > 100 µM | SK-MEL-28 > 100 µM | SF-539 > 100 µM | HL-60 70.6 µM | U-251 64.9 µM | SK-OV-3 > 100 µM | BT-549 92.9 µM

Nc1cc(C(=O)O)nc(O)n1
inactive: HCT-116 > 100 µM | LOX IMVI > 100 µM | MOLT-4 > 100 µM | OVCAR-5 > 100 µM | OVCAR-4 > 100 µM | A549 > 100 µM | SW-620 > 100 µM | NCI-H226 > 100 µM | SF-295 > 100 µM | MDA-MB-435 > 100 µM | OVCAR-8 > 100 µM | SK-MEL-28 > 100 µM | NCI-H522 > 100 µM | HL-60 > 100 µM | U-251 > 100 µM | UO-31 > 100 µM | SK-OV-3 > 100 µM | BT-549 > 100 µM

O=S(=O)(c1ccccc1)c1nccs1
inactive: HCT-116 > 100 µM | LOX IMVI > 100 µM | MOLT-4 > 100 µM | OVCAR-5 > 100 µM | OVCAR-4 > 100 µM | A549 > 100 µM | SW-620 > 100 µM | NCI-H226 > 100 µM | SF-295 > 100 µM | OVCAR-8 > 100 µM | SK-MEL-28 > 100 µM | SF-539 > 100 µM | NCI-H522 > 100 µM | HL-60 > 100 µM | U-251 > 100 µM | UO-31 > 100 µM | SK-OV-3 > 100 µM

COc1ccccc1/C=C1\SC(=S)N(/C=C2\C(=O)Oc3ccccc3C2=O)C1=O
inactive: HCT-116 34.4 µM | LOX IMVI 34.9 µM | MOLT-4 33.9 µM | OVCAR-5 59.8 µM | OVCAR-4 33.2 µM | A549 27.9 µM | SW-620 43.2 µM | NCI-H226 35.3 µM | MDA-MB-435 25.6 µM | OVCAR-8 28.8 µM | SF-539 29 µM | NCI-H522 26.5 µM | U-251 34.3 µM | UO-31 23.2 µM | SK-OV-3 23 µM | BT-549 21.1 µM

CO[C@]12CC(=O)C3(C(C[C@H]4CC5CCC6=CC(=O)CC[C@]6(OC(C)=O)C5C[C@@]43C)C1)C1C[C@H]3[C@@H]4CCC5=CC(=O)CC[C@]5(OC(C)=O)[C@H]4CC[C@]3(C)C12 (stereo partly specified)
inactive: HCT-116 > 100 µM | LOX IMVI > 100 µM | MOLT-4 > 100 µM | OVCAR-5 > 100 µM | OVCAR-4 > 100 µM | A549 > 100 µM | SW-620 > 100 µM | T47D > 100 µM | SF-295 > 100 µM | MDA-MB-435 > 100 µM | OVCAR-8 > 100 µM | SK-MEL-28 > 100 µM | SF-539 > 100 µM | NCI-H522 > 100 µM | HL-60 > 100 µM | U-251 > 100 µM | UO-31 > 100 µM | SK-OV-3 > 100 µM

CC#N.O[C@@H]1CCCC[C@H]1O.O[C@@H]1CCCC[C@H]1O.[TeH2]
inactive: HCT-116 13.4 µM | LOX IMVI 9.57 µM | MOLT-4 27.4 µM | OVCAR-5 23.8 µM | OVCAR-4 61.8 µM | A549 41.5 µM | SW-620 16.7 µM | NCI-H226 46.1 µM | SF-295 18.6 µM | OVCAR-8 19 µM | SK-MEL-28 > 100 µM | SF-539 > 100 µM | NCI-H522 37.2 µM | HL-60 14.6 µM | U-251 13.9 µM | UO-31 47 µM | SK-OV-3 > 100 µM

CC(C)(C)c1ccc(O)c(C(c2ccc([N+](=O)[O-])cc2)c2cc(C(C)(C)C)ccc2O)c1
inactive: HCT-116 2.43 µM | MOLT-4 2.07 µM | OVCAR-5 1.82 µM | OVCAR-4 1.85 µM | A549 1.86 µM | SW-620 2.11 µM | NCI-H226 1.78 µM | T47D 2.65 µM | SF-295 1.98 µM | MDA-MB-435 1.78 µM | OVCAR-8 2.56 µM | SK-MEL-28 1.74 µM | SF-539 1.89 µM | NCI-H522 2.11 µM | HL-60 2.23 µM | U-251 2.28 µM | UO-31 1.95 µM | SK-OV-3 2.11 µM

CC(=O)OC1CCC2C3CCc4c(C)ccc(OS(=O)(=O)c5ccccc5)c4C3CCC12C (stereo unspecified)
inactive: HCT-116 3.37 µM | LOX IMVI 7.41 µM | MOLT-4 6.32 µM | OVCAR-5 86.1 µM | OVCAR-4 21.8 µM | SW-620 63.5 µM | NCI-H226 14.8 µM | SF-295 25.5 µM | MDA-MB-435 41.7 µM | SK-MEL-28 > 100 µM | NCI-H522 27.2 µM | HL-60 3.84 µM | U-251 13.6 µM | UO-31 21.9 µM | SK-OV-3 34.2 µM | BT-549 23.7 µM

Oc1ccc(Cl)cc1-c1cc(-c2ccccc2)nc(S)n1
inactive: HCT-116 28.8 µM | LOX IMVI > 100 µM | MOLT-4 > 100 µM | OVCAR-5 > 100 µM | OVCAR-4 > 100 µM | A549 > 100 µM | SW-620 > 100 µM | NCI-H226 > 100 µM | T47D > 100 µM | SF-295 28.6 µM | MDA-MB-435 > 100 µM | OVCAR-8 > 100 µM | SK-MEL-28 > 100 µM | SF-539 42.6 µM | NCI-H522 > 100 µM | HL-60 > 100 µM | U-251 17.4 µM | UO-31 24 µM | SK-OV-3 29.5 µM

OCN(CO)c1ccc2c(c1)Cc1cc(F)ccc1-2
inactive: HCT-116 39.5 µM | LOX IMVI 17.9 µM | MOLT-4 25.2 µM | OVCAR-5 19.1 µM | OVCAR-4 17.8 µM | A549 21.9 µM | SW-620 12.4 µM | NCI-H226 15.7 µM | T47D 17.8 µM | SF-295 15.3 µM | MDA-MB-435 18.1 µM | OVCAR-8 19.7 µM | SK-MEL-28 24 µM | SF-539 22.3 µM | NCI-H522 19.5 µM | HL-60 29.1 µM | U-251 17.9 µM | UO-31 19.6 µM | SK-OV-3 25.2 µM

COc1nc2ccc(COc3ccc(C(=O)O)cc3)cc2nc1OC
inactive: HCT-116 39.9 µM | LOX IMVI 54.1 µM | MOLT-4 > 100 µM | OVCAR-5 > 100 µM | OVCAR-4 > 100 µM | A549 > 100 µM | SW-620 83.8 µM | NCI-H226 78 µM | T47D > 100 µM | SF-295 32.9 µM | MDA-MB-435 33.7 µM | OVCAR-8 36.4 µM | SK-MEL-28 66.4 µM | SF-539 45.5 µM | NCI-H522 > 100 µM | HL-60 53.8 µM | U-251 87.1 µM | UO-31 > 100 µM | SK-OV-3 > 100 µM

COC(=O)c1sc(C(=O)OC)c2c1C[S+]([O-])C2
inactive: HCT-116 > 100 µM | LOX IMVI > 100 µM | MOLT-4 > 100 µM | OVCAR-5 > 100 µM | OVCAR-4 > 100 µM | A549 > 100 µM | SW-620 > 100 µM | NCI-H226 > 100 µM | SF-295 > 100 µM | OVCAR-8 > 100 µM | SK-MEL-28 > 100 µM | SF-539 > 100 µM | NCI-H522 > 100 µM | HL-60 > 100 µM | U-251 > 100 µM | UO-31 > 100 µM | SK-OV-3 > 100 µM

CC(C)(O)/C=C\P(C)(=O)c1ccccc1 (stereo unspecified)
inactive: HCT-116 > 100 µM | LOX IMVI > 100 µM | OVCAR-5 > 100 µM | OVCAR-4 > 100 µM | A549 > 100 µM | SW-620 > 100 µM | NCI-H226 > 100 µM | T47D > 100 µM | SF-295 > 100 µM | MDA-MB-435 > 100 µM | OVCAR-8 > 100 µM | SK-MEL-28 > 100 µM | SF-539 > 100 µM | NCI-H522 > 100 µM | U-251 > 100 µM | SK-OV-3 > 100 µM

Reference: ChEMBL document CHEMBL1201862, “PubChem BioAssay data set” (2004)
